Data set [1] can be described thus: Measurement of particle diameter distribution (laser diffraction, dry measurement, Mastersizer 2000). The conditions noted are these: for Particle Diameter Distribution D50 / Particle Diameter Distribution D90: dry measurement, volume basis. Type of data set: physicochemical. As for the experimental part:
In the present invention, D50 and D90 are indices for defining particle diameter distribution. Particle diameter distribution is usually called particle size distribution. Particles are divided into groups along with their size with appropriate intervals, and weight (volume) or particle number of the particles belonging to each group is measured to obtain the particle number (frequency) of each group. Taking the particle number (frequency) along the ordinate and taking the particle diameter along the abscissa, a particle diameter distribution is shown as a histogram, frequency curve, cumulative curve or the like. In the present invention, frequency was calculated based on volume. In the particle diameter distribution obtained in such a manner, D50 means the particle diameter at the point where the volume which is cumulatively measured from smaller particles reaches 50%, that is, the point where the cumulative frequency of the volume distribution reaches 50%. D90 means the particle diameter at the point where the volume which is cumulatively measured from smaller particles reaches 90%, that is, the point where the cumulative frequency of the volume distribution reaches 90%. Cumulative frequency (%) of particles which have a smaller diameter than a specified particle diameter can also be calculated from such a distribution chart.
Measurement of the particle diameter distribution of the crystalline finely-ground particles according to the present invention may be carried out with a commercially available apparatus using laser diffraction/scattering based on Mie Theory. For example, the measurement is carried out using a commercially available apparatus such as Malvern (registered trademark) Mastersizer Laser Diffraction Analyzer (Malvern Instruments Ltd). This analyzer irradiates He—Ne laser beam and blue light-emitting diode on particles to obtain a light scattering pattern which occurs on a detector by the irradiation, and then analyzes the light scattering pattern according to Mie Theory to determine the particle diameter distribution. […] An example of the measurement condition is as follows, which was used in Evaluation 1 of the present invention.
• Apparatus: Laser diffraction-based particle size distribution analyzer Mastersizer 2000 (Malvern) • Dry measurement unit: Scircco 2000 • Refractive Index of Samples: Real part; 1.810, Imaginary part; 0 • Time for Sample Measurement: 1 second • Time for Background Measurement: 5 seconds • Pressure: 2.0 bar • Feed Rate: 40% • Analysis Model: Single narrow mode • Calculation Sensitivity Enhanced • Particle Shape Irregular • Analysis Range: 0.020 to 2000 μm • Basis of Size Distribution Measurement: Volume
The particle diameter distribution of the subject compound was measured by dry measurement using a particle size distribution analyzer (Mastersizer 2000, manufactured by Malvern). D50 and D90 were calculated as an index of the particle diameter distribution.

Data set [2] is described as follows: Check of crystalline state and measurement of degree of crystallinity by powder X-ray diffraction. The data set is classed as physicochemical. The conditions noted are these: powder X-ray diffraction, Xc=(Sc/(Sc+Sa))×100. The method, then: The degree of crystallinity of the crystalline finely-ground particles according to the present invention is calculated from the integrated intensity ratio of crystalline peaks and amorphous halo which are extracted from an X-ray diffraction pattern obtained by powder X-ray diffraction measurement.
The powder X-ray diffraction measurement may be carried out by using, for example, a powder X-ray diffractometer (2200/RINT Ultima+PC) manufactured by Rigaku as described in Evaluation 2 of the present invention. In preparation of a measurement sample, 100 mg of a sample material is filled in a glass sample plate (0.2 mm depth) in non-destructive condition, and the surface of the sample material is leveled out using a glass plate to obtain a measurement sample. An example of the measurement condition is as follows, which was used in the present invention.
The degree of crystallinity may be calculated by a known analysis method using diffraction patterns of a sample material and sample plate alone (without a sample material) and a difference pattern thereof. For example, using a powder X-ray diffraction pattern analysis software JADE5.0 produced by MDI, which is a commercially available analysis software, a degree of crystallinity may be calculated as follows.
• (1) A difference pattern of the diffraction patterns of a sample material and sample plate alone is smoothed (Savitzky-Goray filter: 19 points). • (2) For a display area of the difference pattern, the x-axis: diffraction angle (2θ) is set between 2 deg and 90 deg, and the y-axis: diffraction intensity (Counts) is set between 0 and 500. • (3) Points are set at diffraction angles of […], 65 and 90 deg, respectively, and a straight line parallel to the x-axis is drawn such that the line is contact with the difference diffraction pattern at a range of 65 deg to 90 deg. The area below the line is determined as a background. • (4) The background is subtracted. • (5) An integrated intensity at a range of 4 deg to 60 deg is calculated (which corresponds to a sum of the integrated intensity of crystalline peaks and an amorphous halo: Sc+Sa) • (6) Points are set at diffraction angles of 2, 7, 18, 26, 30, 35, 59, 65 and 90 deg, respectively. At 2, 65 and 90 deg, the diffraction intensity is set as 0, and at 7, 18, 26, 30, 35 and 59 deg, an approximation by a cubic spline is made such that the approximation formula is in contact with the difference pattern obtained after the subtraction of the background, thereby estimating an amorphous halo. • (7) The amorphous halo is subtracted. • (8) The integrated intensity at a range of 4 deg to 60 deg is calculated (which corresponds to the integrated intensity of the crystalline peaks: Sc). • (9) A degree of crystallinity is calculated according to the following equation. Xc=(Sc/(Sc+Sa))×100 Equation • Xc: Degree of crystallinity (%) • Sc: Integrated intensity of the crystalline peaks • Sa: Integrated intensity of the amorphous halo
For check of the crystalline state and measurement of the degree of crystallinity, powder X-ray diffraction measurement was carried out using a powder X-ray diffraction analyzer (2200/RINT Ultima+PC) manufactured by Rigaku.

Data set [3] in a line: Plasma concentration of drugs when administered to dogs. Type of data set: in vivo. The conditions noted are these: oral 10 mg/kg, 3 male beagle dogs. As for the experimental part:
The pharmaceutical active substances with a different particle diameter distribution (Example 2 and Comparative Example 2) were orally administered (10 mg/kg) to 3 male beagle dogs, and blood samples were collected at each time points to measure the drug concentration in plasma.

The nature of data set [4]: Storage stability (2): total amount of related substances by HPLC, 60° C./75% RH opened. Type of data set: physicochemical. The method, then:
For comparison of storage stability, the ground pharmaceutical active substance of Comparative Example 4 (grinding for 3 min), Comparative Example 5 (grinding for 6 min) and Comparative Example 6 (grinding for 7 min), all of which were ground with Table Ball Mill (model V-2M: manufactured by Irie Shokai), were left under the storage condition of 60° C./75% RH opened, and the total amount of related substances was analyzed by HPLC 0.5 and 2 months after the start of the storage (Table 7).

[5] abbreviates: 60° C./75% RH opened, 0.5-Month Later.
The mark [6] stands for this setting: 60° C./75% RH opened, 2-Month Later.

SMILES strings stand for the structures.

Take `O=C1c2ccccc2C(=O)N1[C@@H]1CC[C@@]2(O)[C@H]3Cc4ccc(O)c5c4[C@@]2(CCN3CC2CC2)[C@H]1O5` [Comparative Example 2, N-(17-Cyclopropylmethyl-4,5α-epoxy-3,14-dihydroxy-morphinan-6β-yl)-phthalimide]: in data set [1], the “Cumulative Frequency of Volume Distribution Which Is Occupied by Particles with Volume-Based Particle Diameter 15 (μm) or Less” value came to 9.4%, the “Particle Diameter Distribution D50” value stood at 64.0 μm and the “Particle Diameter Distribution D90” value is 173 μm. In data set [2], the “Degree of Crystallinity” value is 93%. Besides, in data set [3], the “Drug Plasma Concentration AUC 0-24 h, Average (Standard Deviation)” value is on record as 44.5 (25.4) ng · hr/mL and the “Drug Plasma Concentration C max, Average (Standard Deviation)” value is reported as 4.8 (1.8) ng/mL.

Take `O=C1c2ccccc2C(=O)N1[C@@H]1CC[C@@]2(O)[C@H]3Cc4ccc(O)c5c4[C@@]2(CCN3CC2CC2)[C@H]1O5` [Comparative Example 4, N-(17-cyclopropylmethyl-4,5α-epoxy-3,14-dihydroxy-morphinan-6β-yl)-phthalimide]: in data set [1], the “Particle Diameter Distribution D50” value is 17.1 μm and the “Particle Diameter Distribution D90” value is on record as 168 μm. Besides, in data set [2], the “Degree of Crystallinity” value is recorded as 82%. In data set [4] (setting [5]), the “Total Amount of Related Substances” value is 0.38%. The “Total Amount of Related Substances” value in data set [4] (At Start of Storage) is 0.23%.

As for `O=C1c2ccccc2C(=O)N1[C@@H]1CC[C@@]2(O)[C@H]3Cc4ccc(O)c5c4[C@@]2(CCN3CC2CC2)[C@H]1O5` [Comparative Example 5, N-(17-cyclopropylmethyl-4,5α-epoxy-3,14-dihydroxy-morphinan-6β-yl)-phthalimide], the “Particle Diameter Distribution D50” value in data set [1] came out at 19.2 μm. In addition, the “Particle Diameter Distribution D90” value in data set [1] is recorded as 246 μm. Also, in data set [2], the “Degree of Crystallinity” value came out at 71%. For the same compound, the “Total Amount of Related Substances” value in data set [4] (setting [5]) is 0.61%; in data set [4] (setting [6]) it was 1.07%; in data set [4] (At Start of Storage), 0.24%.

`O=C1c2ccccc2C(=O)N1[C@@H]1CC[C@@]2(O)[C@H]3Cc4ccc(O)c5c4[C@@]2(CCN3CC2CC2)[C@H]1O5` [Comparative Example 6, N-(17-cyclopropylmethyl-4,5α-epoxy-3,14-dihydroxy-morphinan-6β-yl)-phthalimide]: in data set [1], the “Particle Diameter Distribution D50” value is on record as 23.0 μm. Besides, the “Particle Diameter Distribution D90” value in data set [1] amounted to 436 μm. The “Degree of Crystallinity” value in data set [2] stood at 61%. In addition, the “Total Amount of Related Substances” value in data set [4] (setting [5]) is reported as 0.67%; in data set [4] (setting [6]), 1.27%; in data set [4] (At Start of Storage), 0.24%.

With `O=C1c2ccccc2C(=O)N1[C@@H]1CC[C@@]2(O)[C@H]3Cc4ccc(O)c5c4[C@@]2(CCN3CC2CC2)[C@H]1O5` [Example 2, N-(17-cyclopropylmethyl-4,5α-epoxy-3,14-dihydroxy-morphinan-6β-yl)-phthalimide], in data set [1], the “Cumulative Frequency of Volume Distribution Which Is Occupied by Particles with Volume-Based Particle Diameter 15 (μm) or Less” value came to 96.3%, the “Particle Diameter Distribution D50” value stood at 6.23 μm and the “Particle Diameter Distribution D90” value is listed as 12.4 μm. Besides, in data set [2], the “Degree of Crystallinity” value turned out to be 89%. For the same compound, in data set [3], the “Drug Plasma Concentration AUC 0-24 h, Average (Standard Deviation)” value was 180.3 (40.9) ng · hr/mL and the “Drug Plasma Concentration C max, Average (Standard Deviation)” value was 18.4 (7.2) ng/mL.

(Values after patent US8198446B2, “Crystalline micropowder particles” (Toray Industries, Inc., priority 2007, dated 2012).)
